From patent US9051310B2, “Nicotinamide derivative or salt thereof” (FUJIFILM Corporation, priority 2011, dated 2015) come the findings set out here.

The target in assay [1] is T1, glutathione S-transferase (GST)-linked full-length human Syk protein (Homo sapiens, UniProt P43405).
T1 construct: glutathione S-transferase (GST)-linked full-length human Syk protein; purchased Carna Biosciences; host or cells: Baculovirus expression system
Nature of the assay: Syk enzyme assay. The assay is classed as biochemical. The settings on record: 0.83 nM Syk, time-resolved fluorescence; read-out: IC50 of Syk-inhibitory activity. The method in brief:
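Phosphotyrosine on a biotin-peptide substrate (0.5 μM) was read by time-resolved fluorescence at 615 and 665 nm with Eu-anti-pTyr antibody and APC-streptavidin after 1 h EDTA stop.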

For assay [2], the system named is THP-1 cells (TNFα secretion on human IgG-coated plate). Nature of the assay: TNFα generation assay. The assay is classed as cell-based. The settings on record: IFN-γ differentiated THP-1 cells, 7 hours, AlphaLISA, read-out: IC50 of TNFα generation inhibitory activity. As to the method:
THP-1 cells (2×10^5 cells/ml), which were human monocytoid cells, were cultured in the presence of 10 ng/ml IFN-γ (Roche) for 2 days, and they were induced to differentiate into macrophage-like cells. The differentiation-induced THP-1 cells were recovered, and the cells (1×10^6 cell/ml) were then allowed to react with a predetermined concentration of test compound at room temperature for 30 minutes. On the other hand, 100 μl of human IgG (10 μg/ml, SIGMA-ALDRICH) diluted with PBS was added to a 96-well plate, and it was then incubated at room temperature overnight. Thereafter, the resultant was washed with PBS twice to produce a human IgG-coated plate. A cell fluid that contained a compound was plated on the obtained human IgG-coated plate (5×10^4 cells/well), and it was then cultured for 7 hours. Thereafter, the cultured solution was recovered, and the amount of TNFα secreted into the culture solution was then measured by the AlphaLISA method (PerkinElmer).
For orientation: Bead proximity is the source of the signal in Alpha formats.

Structures are written as SMILES.

For the compound `COCCn1ncc2cc(Nc3nc(N[C@H](c4cccc(F)c4)[C@H](C)N)c(F)cc3C(N)=O)ccc21` [Example 2-454, 6-(((1R,2S)-2-amino-1-(3-fluorophenyl)propyl)amino)-5-fluoro-2-((1-(2-methoxyethyl)-1H-indazol-5-yl)amino)nicotinamide], the IC50 in assay [1] is under 10 nM; in assay [2], 65 to 130 nM.

Take `COc1nn(CC(F)F)c2ccc(Nc3nc(N[C@H](CC(C)C)[C@H](C)N)c(F)cc3C(N)=O)cc12` [Example 2-54, 6-(((2S,3R)-2-amino-5-methylhexan-3-yl)amino)-2-((1-(2,2-difluoroethyl)-3-methoxy-1H-indazol-5-yl)amino)-5-fluoronicotinamide]: the IC50 in assay [1] was under 10 nM; in assay [2] it was 130 to 200 nM.

Regarding `NC(=O)c1cc(F)c(N[C@@H]2CCCC[C@@H]2N)nc1Nc1cccc(Cl)c1` [Example 2-439, 6-(((1R,2S)-2-aminocyclohexyl)amino)-2-((3-chlorophenyl)amino)-5-fluoronicotinamide], the IC50 was under 10 nM in assay [1] and 65 to 130 nM in assay [2].

Turning to `Cc1ncc(Nc2nc(N[C@@H]3CCOC[C@@H]3N)c(F)cc2C(N)=O)cc1F` [Example 2-225, 6-(((3R,4R)-3-aminotetrahydro-2H-pyran-4-yl)amino)-5-fluoro-2-((5-fluoro-6-methylpyridin-3-yl)amino)nicotinamide], the IC50 fell in the range of 10 to 50 nM in assay [1] and 130 to 200 nM in assay [2].

Turning to `CCOC[C@@H](Nc1nc(Nc2ccc3c(cnn3CC)c2)c(C(N)=O)cc1F)[C@H](C)N` [Example 2-182, 6-(((2S,3S)-3-amino-1-ethoxybutan-2-yl)amino)-2-((1-ethyl-1H-indazol-5-yl)amino)-5-fluoronicotinamide], the IC50 is under 10 nM in assay [1] and 65 to 130 nM in assay [2].

With `COc1cc(Nc2nc(N[C@H](c3ccc(F)cc3)[C@H](C)N)c(F)cc2C(N)=O)cc(OC)c1` [Example 2-269, 6-(((1R,2S)-2-amino-1-(4-fluorophenyl)propyl)amino)-2-((3,5-dimethoxyphenyl)amino)-5-fluoronicotinamide], the IC50 in assay [1] was under 10 nM; in assay [2], 65 to 130 nM.

Regarding `CC[C@@H](Nc1nc(Nc2cc(Cl)c3c(cnn3C)c2)c(C(N)=O)cc1F)[C@H](C)N` [Example 2-148, 6-(((2S,3R)-2-aminopentan-3-yl)amino)-2-((7-chloro-1-methyl-1H-indazol-5-yl)amino)-5-fluoronicotinamide], the IC50 in assay [1] is under 10 nM; in assay [2], 65 to 130 nM.

Take `Cc1ccc(Nc2nc(N[C@H](C3CC3)[C@H](C)N)c(F)cc2C(N)=O)cc1C` [Example 2-481, 6-(((1R,2S)-2-amino-1-cyclopropylpropyl)amino)-2-((3,4-dimethylphenyl)amino)-5-fluoronicotinamide]: the IC50 in assay [1] was under 10 nM; in assay [2] it was 65 to 130 nM.

`C[C@H](N)[C@H](Nc1nc(Nc2cccc(-n3nccn3)c2)c(C(N)=O)cc1F)C1CC1` [Example 2-479, 2-((3-(2H-1,2,3-triazol-2-yl)phenyl)amino)-6-(((1R,2S)-2-amino-1-cyclopropylpropyl)amino)-5-fluoronicotinamide]: the IC50 in assay [1] is under 10 nM; in assay [2] it was 65 to 130 nM.

In the case of `COCCn1nc(C)c2cc(Nc3nc(N[C@H](C4CC4)[C@H](C)N)c(F)cc3C(N)=O)ccc21` [Example 2-133, 6-(((1R,2S)-2-amino-1-cyclopropylpropyl)amino)-5-fluoro-((1-(2-methoxyethyl)-3-methyl-1H-indazol-5-yl)amino)nicotinamide], the IC50 in assay [1] was under 10 nM; in assay [2], 65 to 130 nM.

Consider `COc1ccc(Nc2nc(N[C@H](C3CCC3)[C@H](C)N)c(F)cc2C(N)=O)cc1OC` [Example 2-29], for which the IC50 was under 10 nM in assay [1] and 65 to 130 nM in assay [2].

With `Cc1cc(C)cc(Nc2nc(N[C@H](C3CC3)[C@H](C)N)c(F)cc2C(N)=O)c1` [Example 2-45, 6-(((1R,2S)-2-amino-1-cyclopropylpropyl)amino)-2-((3,5-dimethylphenyl)amino)-5-fluoronicotinamide], the results for the IC50 in assay [1] and in assay [2] were under 10 nM and 130 to 200 nM, respectively.
